Measurements: ChEMBL document CHEMBL1201862, “PubChem BioAssay data set” (2004)
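All cell lines were grown in 96-well plates and treated with compound for 48 hours. Abbreviation: GI50, concentration required for 50% inhibition of growth.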 Active and inactive are the calls of the source. No stated cut-off is given here; in the data, active = GI50 up to about 1.1 µM and inactive = higher.

Legend:
Test in all cases: inhibition of tumour cell growth, NCI panel, 48 h
[1] = tested on: T47D
[2] = tested on: NCI-H226
[3] = tested on: U-251
[4] = tested on: 786-0
[5] = tested on: SK-MEL-2
[6] = tested on: MDA-N
[7] = tested on: LOX IMVI
[8] = tested on: HL-60
[9] = tested on: SK-MEL-28
[10] = tested on: MCF7
[11] = tested on: UO-31
[12] = tested on: SN12C
[13] = tested on: SF-539
[14] = tested on: HT-29
[15] = tested on: CAKI-1
[16] = tested on: NCI-H522
[17] = tested on: CCRF-CEM
[18] = tested on: UACC-62
[19] = tested on: MDA-MB-231
[20] = tested on: HCT-15
[21] = tested on: ACHN
[22] = tested on: SW-620
[23] = tested on: K562
[24] = tested on: OVCAR-4
[25] = tested on: SNB-75
[26] = tested on: NCI-H460
[27] = tested on: SR
[28] = tested on: NCI/ADR-RES
[29] = tested on: Hs-578T
[30] = tested on: HOP-62
[31] = tested on: HCT-116
[32] = tested on: SF-295
[33] = tested on: SK-MEL-5
[34] = tested on: SK-OV-3
[35] = tested on: KM12
[36] = tested on: BT-549
[37] = tested on: A549
[38] = tested on: SNB-19
[39] = tested on: MOLT-4
[40] = tested on: OVCAR-8
[41] = tested on: OVCAR-3
[42] = tested on: HOP-92
[43] = tested on: M14
[44] = tested on: TK-10
[45] = tested on: UACC-257
[46] = tested on: DU-145
[47] = tested on: NCI-H23
[48] = tested on: Malme-3M
[49] = tested on: OVCAR-5
[50] = tested on: SF-268
[51] = tested on: HCC 2998
[52] = tested on: RXF 393
[53] = tested on: IGROV-1
[54] = tested on: MDA-MB-435
[55] = tested on: PC-3
[56] = tested on: EKVX
[57] = tested on: COLO 205
[58] = tested on: RPMI-8226

CCCCC(=C=C1CCCCC1O)C1CCCN1C(=O)OC(C)(C)C (stereo not given)
GI50 [1]: 13.2 µM (inactive)
GI50 [2]: 17.4 µM (inactive)
GI50 [3]: 15.9 µM (inactive)
GI50 [4]: 16.1 µM (inactive)
GI50 [5]: 16.2 µM (inactive)
GI50 [6]: 16.4 µM (inactive)
GI50 [7]: 17.7 µM (inactive)
GI50 [8]: 11.1 µM (inactive)
GI50 [9]: 15.5 µM (inactive)
GI50 [10]: 17.2 µM (inactive)
GI50 [11]: 21.3 µM (inactive)
GI50 [12]: 17.8 µM (inactive)
GI50 [13]: 18.7 µM (inactive)
GI50 [14]: 14.3 µM (inactive)
GI50 [15]: 11.5 µM (inactive)
GI50 [16]: 17.1 µM (inactive)
GI50 [17]: 17.6 µM (inactive)
GI50 [18]: 11.2 µM (inactive)
GI50 [19]: 16.1 µM (inactive)
GI50 [20]: 16.4 µM
GI50 [21]: 15.8 µM (inactive)
GI50 [22]: 18.3 µM (inactive)
GI50 [23]: 17.5 µM (inactive)
GI50 [24]: 13.9 µM (inactive)
GI50 [25]: 13.8 µM (inactive)
GI50 [26]: 15.5 µM (inactive)
GI50 [27]: 23.6 µM (inactive)
GI50 [28]: 14.3 µM (inactive)
GI50 [29]: 19.3 µM (inactive)
GI50 [30]: 17 µM (inactive)
GI50 [31]: 14.3 µM (inactive)
GI50 [32]: 14.8 µM (inactive)
GI50 [33]: 16.6 µM (inactive)
GI50 [34]: 16.5 µM (inactive)
GI50 [35]: 16.6 µM (inactive)
GI50 [36]: 19.3 µM (inactive)
GI50 [37]: 14.9 µM (inactive)
GI50 [38]: 16.4 µM (inactive)
GI50 [39]: 15.8 µM (inactive)
GI50 [40]: 18.7 µM (inactive)
GI50 [41]: 15.7 µM (inactive)
GI50 [42]: 12.8 µM (inactive)
GI50 [43]: 16.9 µM (inactive)
GI50 [44]: 16.1 µM (inactive)
GI50 [45]: 15.6 µM (inactive)
GI50 [46]: 17.5 µM (inactive)
GI50 [47]: 16 µM (inactive)
GI50 [48]: 17.3 µM (inactive)
GI50 [49]: 16 µM (inactive)
GI50 [50]: 17.3 µM (inactive)
GI50 [51]: 22.1 µM (inactive)
GI50 [52]: 13 µM (inactive)
GI50 [53]: 16.7 µM (inactive)
GI50 [54]: 16.9 µM (inactive)
GI50 [55]: 16.1 µM (inactive)
GI50 [56]: 14.9 µM (inactive)
GI50 [57]: 17.3 µM (inactive)
GI50 [58]: 12.6 µM (inactive)

Cc1ccc(C(=O)NN=C(/N=N/c2cccc(C)c2)c2ccc(N(C)C)cc2)cc1
GI50 [1]: 2.82 µM (inactive)
GI50 [2]: > 100 µM (inactive)
GI50 [3]: > 100 µM (inactive)
GI50 [4]: > 100 µM (inactive)
GI50 [5]: > 100 µM (inactive)
GI50 [6]: 50.9 µM (inactive)
GI50 [7]: > 100 µM (inactive)
GI50 [8]: > 100 µM (inactive)
GI50 [9]: > 100 µM (inactive)
GI50 [10]: > 100 µM (inactive)
GI50 [11]: > 100 µM (inactive)
GI50 [12]: > 100 µM (inactive)
GI50 [13]: > 100 µM (inactive)
GI50 [14]: > 100 µM (inactive)
GI50 [15]: > 100 µM (inactive)
GI50 [16]: > 100 µM (inactive)
GI50 [17]: > 100 µM (inactive)
GI50 [18]: > 100 µM (inactive)
GI50 [19]: > 100 µM (inactive)
GI50 [20]: > 100 µM
GI50 [21]: > 100 µM (inactive)
GI50 [22]: > 100 µM (inactive)
GI50 [23]: > 100 µM (inactive)
GI50 [24]: > 100 µM (inactive)
GI50 [26]: > 100 µM (inactive)
GI50 [27]: > 100 µM (inactive)
GI50 [28]: > 100 µM (inactive)
GI50 [29]: > 100 µM (inactive)
GI50 [31]: > 100 µM (inactive)
GI50 [32]: > 100 µM (inactive)
GI50 [33]: > 100 µM (inactive)
GI50 [34]: 64 µM (inactive)
GI50 [35]: > 100 µM (inactive)
GI50 [36]: > 100 µM (inactive)
GI50 [37]: > 100 µM (inactive)
GI50 [38]: > 100 µM (inactive)
GI50 [39]: > 100 µM (inactive)
GI50 [40]: > 100 µM (inactive)
GI50 [41]: > 100 µM (inactive)
GI50 [42]: 51.8 µM (inactive)
GI50 [43]: > 100 µM (inactive)
GI50 [44]: > 100 µM (inactive)
GI50 [45]: > 100 µM (inactive)
GI50 [46]: 28.4 µM (inactive)
GI50 [47]: > 100 µM (inactive)
GI50 [49]: > 100 µM (inactive)
GI50 [50]: > 100 µM (inactive)
GI50 [51]: > 100 µM (inactive)
GI50 [53]: > 100 µM (inactive)
GI50 [54]: > 100 µM (inactive)
GI50 [55]: > 100 µM (inactive)
GI50 [56]: > 100 µM (inactive)
GI50 [57]: > 100 µM (inactive)
GI50 [58]: > 100 µM (inactive)

O=C(c1ccco1)N1CCN(C(=O)c2ccco2)C1=S
GI50 [1]: 4.78 µM (inactive)
GI50 [2]: 28.7 µM (inactive)
GI50 [3]: 10 µM (inactive)
GI50 [4]: 3.28 µM (inactive)
GI50 [5]: 13 µM (inactive)
GI50 [6]: 4.7 µM (inactive)
GI50 [7]: 3.59 µM (inactive)
GI50 [8]: 3.42 µM (inactive)
GI50 [9]: 5.87 µM (inactive)
GI50 [10]: 2.99 µM (inactive)
GI50 [11]: 3.68 µM (inactive)
GI50 [12]: 4.18 µM (inactive)
GI50 [13]: 3.33 µM (inactive)
GI50 [14]: 8.05 µM (inactive)
GI50 [15]: 4.72 µM (inactive)
GI50 [16]: 3.91 µM (inactive)
GI50 [17]: 1.77 µM (inactive)
GI50 [18]: 6.34 µM (inactive)
GI50 [19]: 11.6 µM (inactive)
GI50 [20]: 6.24 µM
GI50 [21]: 8.07 µM (inactive)
GI50 [22]: 5.66 µM (inactive)
GI50 [23]: 1.87 µM (inactive)
GI50 [24]: 17.1 µM (inactive)
GI50 [25]: 10.4 µM (inactive)
GI50 [26]: 8.73 µM (inactive)
GI50 [27]: 1.79 µM (inactive)
GI50 [28]: 21.1 µM (inactive)
GI50 [29]: 20.7 µM (inactive)
GI50 [30]: 10.6 µM (inactive)
GI50 [31]: 9.86 µM (inactive)
GI50 [32]: 18.5 µM (inactive)
GI50 [33]: 10.1 µM (inactive)
GI50 [34]: 17.3 µM (inactive)
GI50 [35]: 3.93 µM (inactive)
GI50 [36]: 8.47 µM (inactive)
GI50 [37]: 7.74 µM (inactive)
GI50 [38]: 24.4 µM (inactive)
GI50 [39]: 1.42 µM (inactive)
GI50 [40]: 11 µM (inactive)
GI50 [41]: 3.44 µM (inactive)
GI50 [42]: 7.23 µM (inactive)
GI50 [43]: 6.22 µM (inactive)
GI50 [44]: 6.31 µM (inactive)
GI50 [45]: 4.9 µM (inactive)
GI50 [46]: 2.61 µM (inactive)
GI50 [47]: 18.4 µM (inactive)
GI50 [48]: 6.07 µM (inactive)
GI50 [49]: 20.3 µM (inactive)
GI50 [50]: 6.01 µM (inactive)
GI50 [51]: 12.4 µM (inactive)
GI50 [52]: 2.88 µM (inactive)
GI50 [53]: 9.64 µM (inactive)
GI50 [54]: 3.59 µM (inactive)
GI50 [55]: 4.78 µM (inactive)
GI50 [56]: 16.1 µM (inactive)
GI50 [57]: 6.81 µM (inactive)
GI50 [58]: 2.02 µM (inactive)
